Biological target: T1, Alkaline phosphatase, tissue-nonspecific isozyme (Homo sapiens, UniProt P05186)
T1 sequence (P05186 whole entry): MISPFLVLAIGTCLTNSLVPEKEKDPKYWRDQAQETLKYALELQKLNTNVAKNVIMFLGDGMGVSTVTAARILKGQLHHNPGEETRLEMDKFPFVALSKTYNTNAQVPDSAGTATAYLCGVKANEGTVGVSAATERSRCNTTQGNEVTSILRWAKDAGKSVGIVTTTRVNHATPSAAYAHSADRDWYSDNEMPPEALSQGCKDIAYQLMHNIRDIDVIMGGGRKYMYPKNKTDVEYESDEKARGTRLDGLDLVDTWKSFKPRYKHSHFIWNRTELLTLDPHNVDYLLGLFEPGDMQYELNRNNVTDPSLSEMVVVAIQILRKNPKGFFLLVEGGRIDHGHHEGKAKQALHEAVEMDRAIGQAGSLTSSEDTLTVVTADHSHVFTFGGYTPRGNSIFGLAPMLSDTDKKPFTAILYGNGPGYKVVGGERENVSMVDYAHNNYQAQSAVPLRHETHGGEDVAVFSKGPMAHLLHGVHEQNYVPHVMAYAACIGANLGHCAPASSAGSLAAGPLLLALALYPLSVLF
Test: inhibition of tissue-nonspecific alkaline phosphatase – biochemical, dose response (AID 488882)

| SMILES | IC50 [µM] |
| --- | --- |
| CCOC1=CC(=Cc2c(C)[nH]oc2=O)C=C(Br)C1=O [4-[(Z)-(3-bromo-5-ethoxy-4-oxo-1-cyclohexa-2,5-dienylidene)methyl]-3-methyl-2H-isoxazol-5-one] | 38.1 |
| O=C(O)[C@H]1O[C@@H](Oc2c(-c3ccc(O)c(O)c3)oc3cc(O)cc(=O)c-3c2O)[C@H](O)[C@@H](O)[C@@H]1O [quercetin glucuronide] | > 100 |
| O=C(Nn1c(O)csc1=S)C(=O)Nn1c(O)csc1=S [SMR000349781] | 12.8 |

Now from value to compound:

| IC50 [µM] | SMILES |
| --- | --- |
| > 100 | CC(N=Nc1ccccc1[N+](=O)[O-])c1ccc([N+](=O)[O-])cc1 (stereo unspecified) |
| 46.7 | C=c1[nH]n(Cc2ccccc2)c(=O)c1=Cc1ccc(N(C)C)cc1 [(4Z)-4-[[4-(dimethylamino)phenyl]methylidene]-5-methyl-2-(phenylmethyl)-3-pyrazolone] |
| 7.32 | Cc1c(C(=O)NN=Cc2ccc(O)cc2O)[nH][nH]c1=O |
